Results from patent publication US20260256923A1, “NEW RECRUITMENT ELEMENT OF UBIQUITIN LIGASE AND USE THEREOF” (SHENZHEN LINGGENE BIOTECH CO., LTD., priority 2023, published 2026).

Legend:
[1] = biological target: T1, interaction between NCL and MDM2 (Homo sapiens, UniProt P19338); assay: Co-immunoprecipitation of NCL and MDM2 from HeLa cell lysate, western blot; format: binding; settings: 0-20 μM, 4° C. 6 h, IP with antibody against NCL
T1 construct: HeLa cervical cancer cells were lysed with an IP lysis solution; endogenous in cells; host or cells: HeLa cell lysate
Description: Co-immunoprecipitation (Co-IP) is a classical method for the study of protein interactions based on the specific interaction between an antibody and an antigen. It is an effective method to determine the physiological interaction between two proteins in intact cells.
HeLa cervical cancer cells were lysed with an IP lysis solution (purchased from Thermo Scientific, Cat. No.: 87788) and then incubated with AS 1411 or iSN04 at different concentrations (0 μM, 1 μM, 5 μM, 10 μM, and 20 μM) at 4° C. for 6 h. Subsequently, […] of an antibody against NCL was added, and the mixture was further incubated at 4° C. overnight. Protein A/G magnetic beads (purchased from Thermo Scientific, Cat. No.: 88802) were added, and the mixture was incubated with rotation at room temperature for 1.5 h. The bound NCL and its interacting proteins on the magnetic beads were washed with an IP lysis buffer (purchased from Thermo Scientific, Cat. No.: 87788), and an SDS-PAGE protein loading buffer (purchased from Beyotime, Cat. No.: P0015) was added. The mixture was heated to 100° C. and held for 10 min. The magnetic beads were adsorbed on a magnetic rack, and the supernatant was transferred into a new tube. Subsequently, western blot assay was performed to detect whether NCL bound to MDM2 and whether the binding was affected by AS 1411 or iSN04. […]

HeLa cells = assay: Cell penetration and intracellular colocalization, confocal laser microscope; format: cell-based; settings: 500 nM Cy5-labeled, 6 h
Description: HeLa cells were incubated with 500 nM Cy5-labeled CRO or AS1411 for 6 h. After the incubation was completed, immunofluorescence staining was performed on NCL and MDM2, and 4′,6-diamidino-2-phenylindole (DAPI) was used to stain nuclei. The cell penetration of the CRO or AS1411 and the intracellular colocalization of the CRO or AS1411 with NCL and MDM2 were observed under a confocal laser microscope.
HeLa cells were transfected with si-NC or si-NCL and subsequently incubated with 500 nM Cy5-labeled AS1411 for 6 h. After the incubation was completed, immunofluorescence staining was performed on MDM2, and DAPI was used to stain nuclei. The intracellular colocalization of AS1411 with MDM2 was observed by a confocal laser microscope.

NCL = NCL (Homo sapiens, UniProt P19338); assay: Biotin-oligonucleotide pull-down from HeLa cell lysate, western blot (NCL); format: binding; design: HeLa cervical cancer cells were lysed with an IP lysis solution; endogenous in cells; host or cells: HeLa cell lysate; settings: 5′-biotin label, 0 nM-20 μM
Description: HeLa cervical cancer cells were lysed with an IP lysis solution (purchased from Thermo Scientific, Cat. No.: 87788) and then incubated with a CRO (cytosine-rich oligonucleotide, negative control, SEQ ID NO: 13), AS1411, or iSN04 labeled by biotin at the 5′ end at different concentrations (0 nM, 200 nM, 500 nM, 1 μM, 5 μM, 10 μM, and 20 μM) at 4° C. for 6h. Subsequently, streptavidin agarose gel beads (purchased from cytiva, Cat. No.: 17511301) were added, and the mixture was further incubated at 4° C. overnight. After the bound biotin-labeled CRO, AS411, or iSN04 and its captured proteins on the gel beads were washed multiple times with an IP lysis buffer (purchased from Thermo Scientific, Cat. No.: 87788), an SDS-PAGE protein loading buffer (purchased from Beyotime, Cat. No.: P0015) was added, and the mixture was heated to 100° C. and held for 10 min. After centrifugation, the supernatant was collected as a pull-down product. The pull-down product was detected by western blot assay.

Chain of NCL (P19338 whole entry): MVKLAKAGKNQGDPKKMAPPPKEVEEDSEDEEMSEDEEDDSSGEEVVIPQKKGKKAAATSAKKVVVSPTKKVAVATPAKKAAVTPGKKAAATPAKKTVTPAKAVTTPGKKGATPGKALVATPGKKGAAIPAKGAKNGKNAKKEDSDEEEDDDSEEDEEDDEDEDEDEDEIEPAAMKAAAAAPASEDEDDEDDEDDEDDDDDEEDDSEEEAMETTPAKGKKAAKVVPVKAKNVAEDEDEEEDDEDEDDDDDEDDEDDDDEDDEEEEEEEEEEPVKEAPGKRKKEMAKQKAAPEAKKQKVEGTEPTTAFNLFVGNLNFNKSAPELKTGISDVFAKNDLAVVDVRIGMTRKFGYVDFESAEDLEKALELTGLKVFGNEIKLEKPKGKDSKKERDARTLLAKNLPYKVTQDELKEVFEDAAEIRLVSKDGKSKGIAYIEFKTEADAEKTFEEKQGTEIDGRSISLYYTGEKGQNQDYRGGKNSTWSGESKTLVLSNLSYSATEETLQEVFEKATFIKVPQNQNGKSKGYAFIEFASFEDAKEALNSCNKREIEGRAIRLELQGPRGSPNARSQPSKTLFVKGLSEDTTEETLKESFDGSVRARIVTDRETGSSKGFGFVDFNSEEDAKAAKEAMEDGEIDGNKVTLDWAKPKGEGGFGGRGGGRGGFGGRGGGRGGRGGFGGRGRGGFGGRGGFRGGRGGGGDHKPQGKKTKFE
T1 sequence (P19338 2-710 limits assumed): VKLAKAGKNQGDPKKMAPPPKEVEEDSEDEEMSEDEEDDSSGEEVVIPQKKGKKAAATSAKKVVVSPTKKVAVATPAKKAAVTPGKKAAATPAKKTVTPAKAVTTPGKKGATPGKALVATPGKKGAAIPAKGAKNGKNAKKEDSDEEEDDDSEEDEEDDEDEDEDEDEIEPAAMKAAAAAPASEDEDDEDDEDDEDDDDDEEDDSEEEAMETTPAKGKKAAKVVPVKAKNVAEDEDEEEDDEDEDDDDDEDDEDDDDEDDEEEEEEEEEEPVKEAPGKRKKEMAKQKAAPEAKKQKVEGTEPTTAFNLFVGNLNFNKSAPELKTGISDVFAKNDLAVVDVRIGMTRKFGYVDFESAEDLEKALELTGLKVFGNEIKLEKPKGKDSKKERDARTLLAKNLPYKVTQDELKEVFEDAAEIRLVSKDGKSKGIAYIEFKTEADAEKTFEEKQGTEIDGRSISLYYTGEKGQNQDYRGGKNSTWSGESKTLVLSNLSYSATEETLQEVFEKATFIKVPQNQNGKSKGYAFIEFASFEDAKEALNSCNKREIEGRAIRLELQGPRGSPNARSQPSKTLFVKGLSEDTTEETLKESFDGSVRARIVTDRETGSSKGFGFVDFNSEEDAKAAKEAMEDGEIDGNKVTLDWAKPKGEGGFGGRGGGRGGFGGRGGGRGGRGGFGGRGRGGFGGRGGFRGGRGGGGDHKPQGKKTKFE

AS1411: DNA aptamer, GRO binding NCL, SEQ ID NO: 1: 5′-GGTGGTGGTGGTTGTGGTGGTGGTGG-3′
effect on the interaction between NCL and MDM2 [1]: does not affect the interaction between NCL and MDM2
cell penetration (HeLa cells): can penetrate HeLa cells
intracellular colocalization with NCL and MDM2 (HeLa cells): exhibits significant colocalization with both NCL and MDM2
cell penetration when NCL is silenced (HeLa cells; si-NCL): silencing NCL can block AS1411 from penetrating cells
intracellular colocalization with MDM2 when NCL is silenced (HeLa cells; si-NCL): no observed colocalization between AS1411 and MDM2
capture of NCL (NCL): can capture NCL and MDM2 in a concentration-dependent manner
